The test system of the assay is BDF1 mice, B16 melanoma ip, median survival T/C. The assay is described as follows: NCI In Vivo Anticancer Drug Screen. Data for tumor model B16 Melanoma (intraperitoneal) in B6D2F1 (BDF1) mice. Particulars: endpoint: median survival time, higher = longer survival. The method, boiled down: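 Survival or tumor size is measured after treatment of tumor-bearing mice and normalised to the vehicle-treated control group.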

Setting [1] is: dose: 12.5 mg/kg/injection, schedule: Q01DX009 (ip), vehicle: saline with Tween-80.
The mark [2] stands for this setting: dose: 25.0 mg/kg/injection, schedule: Q01DX009 (ip), vehicle: saline with Tween-80.
The mark [3] stands for this setting: dose: 50.0 mg/kg/injection, schedule: Q01DX009 (ip), vehicle: saline with Tween-80.
[4] abbreviates: dose: 100.0 mg/kg/injection, schedule: Q01DX009 (ip), vehicle: saline with Tween-80.
The mark [5] stands for this setting: dose: 6.25 mg/kg/injection, schedule: Q01DX009 (ip), vehicle: saline.
Where [6] appears, read: dose: 25.0 mg/kg/injection, schedule: Q01DX009 (ip), vehicle: saline.
Where [7] appears, read: dose: 50.0 mg/kg/injection, schedule: Q01DX009 (ip), vehicle: saline.
[8] abbreviates: dose: 100.0 mg/kg/injection, schedule: Q01DX009 (ip), vehicle: Klucel (hydroxypropylcellulose) (HPC).
Where [9] appears, read: dose: 200.0 mg/kg/injection, schedule: Q01DX009 (ip), vehicle: Klucel (hydroxypropylcellulose) (HPC).
[10] abbreviates: dose: 100.0 mg/kg/injection, schedule: Q04DX003 (ip), vehicle: Klucel (hydroxypropylcellulose) (HPC).
[11] abbreviates: dose: 200.0 mg/kg/injection, schedule: Q04DX003 (ip), vehicle: Klucel (hydroxypropylcellulose) (HPC).
The mark [12] stands for this setting: dose: 400.0 mg/kg/injection, schedule: Q04DX003 (ip), vehicle: Klucel (hydroxypropylcellulose) (HPC).
The mark [13] stands for this setting: dose: 50.0 mg/kg/injection, schedule: Q01DX009 (ip), vehicle: Klucel (hydroxypropylcellulose) (HPC).

Where “and” joins values, the source holds several entries; their conditions need not be identical. Identical values can stand only once. Inconclusive results and toxic doses are left out.

On to `O=C(NC(CSCc1ccccc1)C(=O)O)OCc1ccccc1` (stereo not given), for which the T/C is, setting by setting: under setting [1], 107 % of control; under setting [2], 107 % of control; under setting [3], 98 % of control and 103 % of control; under setting [4], 87 % of control.

As to `NC(CC(=O)CCl)C(=O)O` (stereo not given), the T/C (dose: 3.13 mg/kg/injection, schedule: Q01DX009 (ip), vehicle: saline) is 109 % of control and the T/C under setting [5] was 118 % of control.

Take `COC1C=CC23c4cc5c(cc4C(O)OC2CN(C)C3C1)OCO5` (stereo not given): the T/C by setting is: under setting [5], 101 % of control and 109 % of control; (dose: 12.5 mg/kg/injection, schedule: Q01DX009 (ip), vehicle: saline) 98 % of control and 108 % of control; under setting [6], 112 % of control and 116 % of control; under setting [7], 112 % of control.

For `c1cc2c(c(CC3CO3)c1CC1CO1)OCCOCCOCCOCCO2` (stereo not given), the T/C (dose: 50.0 mg/kg/injection, schedule: Q01DX009 (ip), vehicle: saline + Tween-80 + alcohol) was 109 % of control and the T/C (dose: 100.0 mg/kg/injection, schedule: Q01DX009 (ip), vehicle: saline + Tween-80 + alcohol) was 118 % of control.

With `CNC(=O)CCN1CCN(CC/C=C2\c3ccccc3Sc3ccc(Cl)cc32)CC1`, the T/C is, setting by setting: (dose: 0.12 mg/kg/injection, schedule: Q01DX009 (ip), vehicle: saline) 105 % of control; (dose: 0.51 mg/kg/injection, schedule: Q01DX009 (ip), vehicle: saline) 100 % of control; (dose: 1.03 mg/kg/injection, schedule: Q01DX009 (ip), vehicle: saline) 87 % of control; (dose: 2.06 mg/kg/injection, schedule: Q01DX009 (ip), vehicle: saline) 95 % of control; (dose: 4.12 mg/kg/injection, schedule: Q01DX009 (ip), vehicle: saline) 97 % of control.

As for `CC(=O)CC(=O)Nc1cc(Cl)c(NC(=O)CC(C)=O)cc1Cl`, the T/C (dose: 100.0 mg/kg/injection, schedule: Q04DX003 (ip), vehicle: saline with Tween-80) is 88 % of control and the T/C (dose: 200.0 mg/kg/injection, schedule: Q04DX003 (ip), vehicle: saline with Tween-80) was 98 % of control.

Regarding `COc1ccccc1NC(=O)Nc1cccc(C)c1C`, the T/C reads like this: under setting [8], 87 % of control; under setting [9], 86 % of control.

For `C/C=C(\C)C(=O)OC1C(C)=C2C(C1OC(=O)CCCC)C(C)(OC(C)=O)CC(OC(=O)CCCC)C1(O)C2OC(=O)C1(C)O` (stereo not given), the T/C was 90 % of control (dose: 0.37 mg/kg/injection, schedule: Q01DX009 (ip), vehicle: Klucel (hydroxypropylcellulose) (HPC)); 101 % of control (dose: 0.75 mg/kg/injection, schedule: Q01DX009 (ip), vehicle: Klucel (hydroxypropylcellulose) (HPC)); 106 % of control (dose: 1.5 mg/kg/injection, schedule: Q01DX009 (ip), vehicle: Klucel (hydroxypropylcellulose) (HPC)); 89 % of control (dose: 3.0 mg/kg/injection, schedule: Q01DX009 (ip), vehicle: Klucel (hydroxypropylcellulose) (HPC)).

Take `CCOC(=O)/C(Cc1cc[n+]([O-])c2ccccc12)=N/O`: the T/C is, setting by setting: under setting [10], 88 % of control; under setting [11], 97 % of control; under setting [12], 88 % of control.

Consider `CCN(C(=O)Nc1cccc(Cl)c1)c1ccccc1C`, for which the T/C by setting is: under setting [4], 100 % of control; (dose: 200.0 mg/kg/injection, schedule: Q01DX009 (ip), vehicle: saline with Tween-80) 100 % of control; (dose: 400.0 mg/kg/injection, schedule: Q01DX009 (ip), vehicle: saline with Tween-80) 94 % of control.

Take `CC(C)(C)C1CCNC(=O)CC1` (stereo not given): the T/C is 88 % of control (dose: 5.0 mg/kg/injection, schedule: Q01DX009 (ip), vehicle: Klucel (hydroxypropylcellulose) (HPC)); 94 % of control (dose: 10.0 mg/kg/injection, schedule: Q01DX009 (ip), vehicle: Klucel (hydroxypropylcellulose) (HPC)); 97 % of control (dose: 20.0 mg/kg/injection, schedule: Q01DX009 (ip), vehicle: Klucel (hydroxypropylcellulose) (HPC)).

With `NC(c1ccccc1)C(N)c1ccccc1` (stereo not given), the T/C is, setting by setting: (dose: 25.0 mg/kg/injection, schedule: Q04DX003 (ip), vehicle: other) 97 % of control; (dose: 50.0 mg/kg/injection, schedule: Q04DX003 (ip), vehicle: other) 97 % of control; (dose: 100.0 mg/kg/injection, schedule: Q04DX003 (ip), vehicle: other) 86 % of control.

On to `O=[N+]([O-])c1cc([N+](=O)[O-])c(Nc2cccc3ccccc23)c([N+](=O)[O-])c1`, for which the T/C under setting [13] is 92 % of control, the T/C under setting [8] was 103 % of control and the T/C under setting [9] is 97 % of control.

As to `COc1ccc(N=O)c(O)c1`, the T/C is, setting by setting: (dose: 6.25 mg/kg/injection, schedule: Q01DX009 (ip), vehicle: saline with Tween-80) 97 % of control; under setting [1], 97 % of control; under setting [2], 90 % of control; under setting [6], 197 % of control; under setting [3], 109 % of control; under setting [7], 95 % of control. Also, where the note is “dose: 100.0 mg/kg/injection, schedule: Q01DX009 (ip), vehicle: saline”, the T/C was 90 % of control.

Regarding `CCOC(=O)c1ccc(NS(C)(=O)=O)cc1`, the T/C by setting is: (dose: 75.0 mg/kg/injection, schedule: Q01DX009 (ip), vehicle: Klucel (hydroxypropylcellulose) (HPC)) 94 % of control; (dose: 150.0 mg/kg/injection, schedule: Q01DX009 (ip), vehicle: Klucel (hydroxypropylcellulose) (HPC)) 102 % of control; (dose: 300.0 mg/kg/injection, schedule: Q01DX009 (ip), vehicle: Klucel (hydroxypropylcellulose) (HPC)) 108 % of control.

Consider `C[C@@H]1CC2=CC(=O)C=C[C@]2(C)[C@H]2CC[C@@]3(C)[C@@H](CC[C@]3(C)O)[C@H]12`, for which the T/C (dose: 6.25 mg/kg/injection, schedule: Q01DX009 (ip), vehicle: Klucel (hydroxypropylcellulose) (HPC)) was 107 % of control; the T/C (dose: 12.5 mg/kg/injection, schedule: Q01DX009 (ip), vehicle: Klucel (hydroxypropylcellulose) (HPC)) is 103 % of control; the T/C (dose: 25.0 mg/kg/injection, schedule: Q01DX009 (ip), vehicle: Klucel (hydroxypropylcellulose) (HPC)) was 102 % of control; the T/C under setting [13] was 95 % of control; the T/C under setting [8] is 93 % of control.

With `Nc1ccc(C(=O)Oc2ccc([N+](=O)[O-])cc2)c(O)c1`, the T/C runs as follows: under setting [8], 87 % of control; under setting [9], 97 % of control.

For the compound `CNC(=O)Nc1cccc2c(=O)[nH][nH]c(=O)c12`, the T/C by setting is: under setting [10], 112 % of control; under setting [11], 102 % of control; under setting [12], 91 % of control.

The record behind these values is PubChem BioAssay AID192 (DTP/NCI, 2004).
